From BindingDB's records for doi:10.1021/acs.jmedchem.6b00108 (University of Montreal, 2016)
Where a SMILES comes first, the peptide text is derived from it.

Assays:
[1] = Antagonist activity at UT2 receptor in Sprague-Dawley rat thoracic aorta ring assessed as pEC50 for URP -induced aortic contractions at 10^-5M relative to KCl
[2] = Antagonist activity at UT2 receptor in Sprague-Dawley rat thoracic aorta ring assessed as pEC50 for hU2-induced aortic contractions at 10^-5M relative to KCl

Structure (SMILES)	EC50 [1] [nM]	EC50 [2] [nM]
CC(C)[C@H](NC(=O)[C@@H]1CSSC[C@H](NC(=O)[C@@H](N)CC(=O)O)C(=O)N[C@@H](Cc2ccccc2)C(=O)NN(Cc2cccc3ccccc23)S(=O)(=O)N[C@@H](CCCCN)C(=O)N[C@@H](Cc2ccc(O)cc2)C(=O)N1)C(=O)O	7.9	5
CC(C)[C@H](NC(=O)[C@@H]1CSSC[C@H](NC(=O)[C@@H](N)CC(=O)O)C(=O)N[C@@H](Cc2ccccc2)C(=O)NN(Cc2ccc3ccccc3c2)S(=O)(=O)N[C@@H](CCCCN)C(=O)N[C@@H](Cc2ccc(O)cc2)C(=O)N1)C(=O)O	9.5	15
CC(C)[C@H](NC(=O)[C@@H]1CSSC[C@H](NC(=O)[C@@H](N)CC(=O)O)C(=O)N[C@@H](Cc2ccccc2)C(=O)N[C@@H](Cc2c[nH]c3ccccc23)C(=O)NN(CCCCN(C)C)S(=O)(=O)N[C@@H](Cc2ccc(O)cc2)C(=O)N1)C(=O)O (HELM PEPTIDE1{D.C.F.W.[CN(C)CCCCN(N[*:1])S(=O)(=O)N[C@@H](Cc1ccc(O)cc1)C(=O)[*:2]].C.V}$PEPTIDE1,PEPTIDE1,2:R3-6:R3$$$V2.0)	3.7	1.6
CC(C)[C@H](NC(=O)[C@@H]1CSSC[C@H](NC(=O)[C@@H](N)CC(=O)O)C(=O)N[C@@H](Cc2ccccc2)C(=O)NN(Cc2ccccc2)S(=O)(=O)N[C@@H](CCCCN)C(=O)N[C@@H](Cc2ccc(O)cc2)C(=O)N1)C(=O)O (HELM PEPTIDE1{D.C.F.[NCCCC[C@H](NS(=O)(=O)N(Cc1ccccc1)N[*:1])C(=O)[*:2]].Y.C.V}$PEPTIDE1,PEPTIDE1,2:R3-6:R3$$$V2.0)	3.5	4.8
